According to patent publication US12486303B2, “Use of peptide for inhibiting functions and expressions of multiple disease biomarkers” (NIBEC CO., LTD., priority 2018, dated 2025):

Test system: TNBS-induced colitis rats
Assay: TNBS colitis-induced animal model
Format: in vivo
Protocol: In order to determine whether or not the peptide according to the present invention has the effect of treating inflammatory colitis in vivo, the effect of treating colitis in a colitis-induced animal model was detected. Before induction of colitis, rats were allowed to drink water freely, although food was not supplied thereto for 24 hours. The rats were lightly anesthetized with ether. A rubber cannula (o.d., 2 mm) was inserted into the colon, the end of which was about 8 cm away from the anus and was located near the splenic flexure. 2,4,6-trinitro benzene sulfonic acid (TNBS; Sigma Chemical Co, St Louis, Missouri, USA) dissolved in a 50% (v/v) ethanolic aqueous solution was injected into the colon through the rubber cannula (15 mg/0.3 mL/rat). 72 hours after induction of colitis, the peptide of SEQ ID NO: 1 (30 mg/kg) was intraperitoneally injected once a day, and after administration for 7 days, the rats were sacrificed. The weight of the rats was measured at 9 AM every day, and the length of the colon was measured from the cecum to the anus using a vernier caliper (Mitutoyo, Japan) after rat sacrifice.
The extracted large intestine was frozen and stored at −70° ° C., the mucous membrane tissue was collected from the muscle layer of the large intestine, the weight of the mucous membrane tissue was measured, and 10 mg of the mucous membrane tissue was lysed in a triple wash buffer (50 mM Tris-HCl, pH 8.0, 150 mM NaCl, 0.1% sodium deoxycholate and 1 mM phenylmethysulfonyl and homogenized. Then, p40, TNF-α, and IL-12 were assayed using an ELISA kit (R&D, Minneapolis, MN, USA).

Structure (SMILES): C[C@@H](O)[C@H](NC(=O)[C@H](CO)NC(=O)[C@H](CS)NC(=O)[C@H](CCCCN)NC(=O)CN)C(=O)N[C@@H](CCCNC(=N)N)C(=O)NCC(=O)N[C@@H](CCCNC(=N)N)C(=O)N[C@@H](CCCCN)C(=O)N[C@@H](CS)C(=O)N[C@@H](CS)C(=O)N[C@@H](CCCNC(=N)N)C(=O)N[C@@H](CCCNC(=N)N)C(=O)N[C@@H](CCCCN)C(=O)N[C@@H](CCCCN)C(=O)O [SEQ ID NO: 1]
- Expression of IL-12 in large intestine mucous membrane tissue (ELISA) (30 mg/kg intraperitoneally): decreased
- Expression of TNF-α in large intestine mucous membrane tissue (ELISA) (30 mg/kg intraperitoneally): decreased
- Expression of p40 in large intestine mucous membrane tissue (ELISA) (30 mg/kg intraperitoneally): decreased
- Visual observation of large intestine (30 mg/kg intraperitoneally once a day, 7 days, 8th day): appeared similar to the normal group (CON), indicating that colitis was remarkably suppressed
